14 compounds from ChEMBL document CHEMBL1134199, “Peptoids as endothelin receptor antagonists” (Bioorg Med Chem Lett, 2001) can be followed below.

What is called pIC50 is the IC50 on a negative log10 scale, so that one unit is a factor of ten.

The target in experiment [1] is T1, Endothelin receptor type B (Sus scrofa, UniProt P35463).
T1 sequence (P35463 whole entry): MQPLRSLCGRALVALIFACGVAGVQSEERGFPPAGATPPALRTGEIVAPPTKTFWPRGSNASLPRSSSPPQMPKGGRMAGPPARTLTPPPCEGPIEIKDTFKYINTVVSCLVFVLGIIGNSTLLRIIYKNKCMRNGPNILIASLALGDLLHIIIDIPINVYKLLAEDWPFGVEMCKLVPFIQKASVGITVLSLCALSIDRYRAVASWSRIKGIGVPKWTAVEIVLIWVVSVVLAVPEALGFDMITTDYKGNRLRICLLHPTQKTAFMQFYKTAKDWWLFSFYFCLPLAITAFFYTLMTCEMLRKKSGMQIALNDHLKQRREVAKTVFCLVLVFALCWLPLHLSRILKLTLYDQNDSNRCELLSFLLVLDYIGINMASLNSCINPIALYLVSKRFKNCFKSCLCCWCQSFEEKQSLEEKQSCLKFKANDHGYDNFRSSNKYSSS
Briefly: Ability to bind with Endothelin B receptor competitively in the presence of (125 I) endothelin using receptor binding assay.

The target of experiment [2] is T2, Endothelin-1 receptor (Sus scrofa, UniProt Q29010).
T2 sequence (Q29010 whole entry): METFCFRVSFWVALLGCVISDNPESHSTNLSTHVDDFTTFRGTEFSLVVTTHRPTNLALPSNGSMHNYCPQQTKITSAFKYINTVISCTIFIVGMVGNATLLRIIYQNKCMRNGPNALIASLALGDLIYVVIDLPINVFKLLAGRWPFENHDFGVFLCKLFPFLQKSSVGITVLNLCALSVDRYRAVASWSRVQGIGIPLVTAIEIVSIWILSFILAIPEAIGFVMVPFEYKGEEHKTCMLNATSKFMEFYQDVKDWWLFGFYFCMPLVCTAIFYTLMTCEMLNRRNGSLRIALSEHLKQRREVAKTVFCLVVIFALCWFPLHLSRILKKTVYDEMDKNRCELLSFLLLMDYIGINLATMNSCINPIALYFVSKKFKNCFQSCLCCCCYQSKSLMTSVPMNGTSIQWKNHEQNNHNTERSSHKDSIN
As to the kind of experiment: Ability to bind with Endothelin A receptor competitively in the presence of (125 I) endothelin using receptor binding assay.

The structures appear in SMILES notation. pIC50: −log10 of the molar value. A value given as a limit tells only on which side of the number the result lay.

For the compound `COc1ccc(CN(Cc2cc3c(cc2Cl)OCO3)C(Cc2ccc(O)cc2)C(=O)O)cc1` (stereo not given), the negative logarithm of the IC50 (pIC50) in experiment [1] is 5.26; in experiment [2] it was below 4.00.

Regarding `COc1ccc(CN(C(=O)c2ccc(OC)cc2)C(Cc2c[nH]c3ccccc23)C(=O)O)cc1` (stereo not given), the pIC50 in experiment [1] and in experiment [2] was below 4.00 each time.

Take `COc1ccc(C(=O)N(Cc2cc3c(cc2Cl)OCO3)C(Cc2c[nH]c3ccccc23)C(=O)O)cc1` (stereo not given): the negative-log IC50 (pIC50) is 4.31 in experiment [1] and 4.52 in experiment [2].

Consider `COc1ccc(CC(C(=O)O)N(Cc2ccc(OC)cc2)Cc2cc(OC)c(OC)c(OC)c2)cc1` (stereo not given), for which the pIC50 in experiment [1] is 4.72.

In the case of `COc1ccc(CN(Cc2cc(OC)c(OC)c(OC)c2)C(Cc2c[nH]c3ccccc23)C(=O)O)cc1` (stereo not given), the pIC50 in experiment [1] was 4.46; in experiment [2] it was 4.38.

Turning to `O=C(O)C(Cc1ccc(O)cc1)N(Cc1cc2c(cc1Cl)OCO2)C(=O)/C=C/c1ccc2c(c1)OCO2` (stereo not given), the negative logarithm of the IC50 (pIC50) in experiment [1] is 4.18; in experiment [2] it was 4.42.

Regarding `O=C(O)C(Cc1c[nH]c2ccccc12)N(Cc1cc2c(cc1Cl)OCO2)Cc1cc2c(cc1Cl)OCO2` (stereo not given), the results for the pIC50 in experiment [1] and in experiment [2] were 5.17 and 4.79, respectively.

On to `COc1ccc(CN(Cc2cc(OC)cc(OC)c2)C(Cc2ccc(O)cc2)C(=O)O)cc1` (stereo not given), for which the negative logarithm of the IC50 (pIC50) in experiment [2] was 4.44.

In the case of `COc1cccc(CN(C(=O)/C=C/c2ccc3c(c2)OCO3)C(Cc2ccc(O)cc2)C(=O)O)c1` (stereo not given), the pIC50 in experiment [2] was 4.51.

Turning to `COc1ccc(CN(C(=O)/C=C/c2ccc3c(c2)OCO3)C(Cc2ccc(O)cc2)C(=O)O)cc1` (stereo not given), the pIC50 in experiment [1] is 4.90; in experiment [2] it was 5.22.

Take `O=C(O)C(Cc1c[nH]c2ccccc12)N(Cc1cc2c(cc1Cl)OCO2)C(=O)/C=C/c1ccc2c(c1)OCO2` (stereo not given): the results for the pIC50 in experiment [1] and in experiment [2] were 6.18 and 5.05, respectively.

In the case of `COc1ccc(CN(C(=O)/C=C/c2ccc3c(c2)OCO3)C(Cc2c[nH]c3ccccc23)C(=O)O)cc1` (stereo not given), the negative logarithm of the IC50 (pIC50) was 6.33 in experiment [1] and 5.00 in experiment [2].

On to `COc1ccc(CN(C(=O)/C=C/c2ccc3c(c2)OCO3)C(Cc2ccccc2)C(=O)O)cc1` (stereo not given), for which the pIC50 in experiment [1] was 5.19; in experiment [2], 4.57.

In the case of `CCOC(=O)CN(Cc1cc2c(cc1Cl)OCO2)C(Cc1ccc(O)cc1)C(=O)O` (stereo not given), the pIC50 is 4.26 in experiment [1] and 4.67 in experiment [2].
